One may read the EC50 as the concentration giving half of the maximal effect.

In US11505558B1, “Antiviral heterocyclic compounds” (Enanta Pharmaceuticals, Inc., priority 2019, dated 2022) one finds EC50 data, which are given here for 53 compounds.

Bounds are passed on as bounds.

This assay deals with genotype A, "Long" strain RSV. Description: RSV-A assay (CPE, ATPlite readout in Hep-2 cells). The assay is classed as cell-based. The note with it: human respiratory syncytial virus, HEp-2, Hep-2 cells, genotype A "Long" strain RSV, MOI 0.1; read-out: Human RSV-A (“Long” strain) EC50. Put shortly: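 Hep-2 cells (8,000/well) received 2-fold serial compound dilutions in duplicate and RSV Long strain at MOI 0.1. After 5 days' incubation, cell health was read as ATP by ATPlite luminescence, with virus-only and uninfected controls defining max and minimum CPE; EC50 reported.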
A general note: In ATP-based viability assays light output follows the ATP content of the culture.
As to `C[C@]1(C(N)=O)COc2c1cc([C@@](O)(CNC(=O)c1ccc(C3=CCOCC3)c(OC3CC3)c1)C(F)(F)F)nc2-c1ccc(F)cc1` [Example 178], the EC50 is more than 200 nM.
In the case of `Cc1nocc1-c1ccc(C(=O)NC[C@](O)(c2cc3c(c(-c4ccc(F)cc4)n2)OC[C@]3(C)C(N)=O)C(F)(F)F)cc1OC1CC1` [Example 181], the 50% effective concentration (EC50) was less than 200 nM.
Turning to `COc1cc(C(=O)NC[C@](O)(c2cc3c(c(-c4ccc(F)cc4)n2)OC[C@]3(C)C(N)=O)C(F)(F)F)ccc1-c1ncc(C)o1` [Example 182], the 50% effective concentration (EC50) is less than 200 nM.
`COc1cc(C(=O)NC[C@](O)(c2cc3c(c(-c4ccc(F)cc4)n2)OC[C@]3(C)C(N)=O)C(F)(F)F)ccc1-c1cnoc1` [Example 184]: the half-maximal effective concentration (EC50) is less than 200 nM.
The figure for `COc1cc(C(=O)NC[C@](O)(c2cc3c(c(-c4ccc(F)cc4)n2)OC[C@]3(C)C(N)=O)C(F)(F)F)ccc1-c1cnoc1C` [Example 185] is less than 200 nM; for `COc1cc(C(=O)NC[C@](O)(c2cc3c(c(-c4ccc(F)cc4)n2)OC[C@]3(C)C(N)=O)C(F)(F)F)ccc1-c1conc1C` [Example 186] it is less than 200 nM; for `COc1cc(C(=O)NC[C@](O)(c2cc3c(c(-c4ccc(F)cc4)n2)OC[C@]3(C)C(N)=O)C(F)(F)F)ccc1-c1cnco1` [Example 187] it is less than 200 nM.
As for `COc1cc(C(=O)NC[C@](O)(c2cc3c(c(-c4ccc(F)cc4)n2)OC[C@]3(C)C(N)=O)C(F)(F)F)ccc1OCCN1CCOCC1` [Example 188], the 50% effective concentration (EC50) is more than 200 nM.
As to `COc1cc(C(=O)NC[C@](O)(c2cc3c(c(-c4ccc(F)cc4)n2)OC[C@]3(C)C(N)=O)C(F)(F)F)ccc1OCCN1CCCCC1` [Example 189], the 50% effective concentration (EC50) was more than 200 nM.
With `COc1cc(C(=O)NC[C@](O)(c2cc3c(c(-c4ccc(F)cc4)n2)OC[C@]3(C)C(N)=O)C(F)(F)F)ccc1OCCN1CCN(C)CC1` [Example 190], the concentration giving a half-maximal response (EC50) was more than 200 nM.
With `COc1cc(C(=O)NC[C@](O)(c2cc3c(c(-c4ccc(F)cc4)n2)OC[C@]3(C)C(N)=O)C(F)(F)F)ccc1-c1coc(C)n1` [Example 197], the concentration giving a half-maximal response (EC50) was more than 200 nM.
The figure for `C[C@]1(C(N)=O)COc2c1cc([C@@](O)(CNC(=O)c1ccc(-c3cocn3)c(OC3CC3)c1)C(F)(F)F)nc2-c1ccc(F)cc1` [Example 198] is less than 200 nM; for `COc1cc(C(=O)NC[C@](O)(c2cc3c(c(-c4ccc(F)cc4)n2)OC[C@]3(C)C(N)=O)C(F)(F)F)ccc1-c1cocn1` [Example 199] it is less than 200 nM; for `COc1cc(C(=O)NC[C@](O)(c2cc3c(c(-c4ccc(F)cc4)n2)OC[C@]3(C)C(N)=O)C(F)(F)F)ccc1-c1nnco1` [Example 200] it is less than 200 nM.
For the compound `COc1cc(C(=O)NC[C@](O)(c2cc3c(c(-c4ccc(F)cc4)n2)OC[C@]3(C)C(N)=O)C(F)(F)F)ccc1-c1nncs1` [Example 201], the EC50 was less than 200 nM.
With `C[C@@H](O)COc1ccc(C(=O)NC[C@](O)(c2cc3c(c(-c4ccc(F)cc4)n2)OC[C@]3(C)C(N)=O)C(F)(F)F)cc1-c1cncnc1` [Example 203], the concentration for a half-maximal effect (EC50) was more than 200 nM.
In the case of `C[C@@H](O)COc1ccc(C(=O)NC[C@](O)(c2cc3c(c(-c4ccc(F)cc4)n2)OC[C@]3(C)C(N)=O)C(F)(F)F)cc1-c1cccnc1` [Example 204], the EC50 was more than 200 nM.
The figure for `C[C@]1(C(N)=O)COc2c1cc([C@@](O)(CNC(=O)c1cc(Cl)c3ncccc3c1)C(F)(F)F)nc2-c1ccc(F)c(Cl)c1` [Example 220] is less than 200 nM.
On to `COc1cc(C(=O)NC[C@](O)(c2cc3c(c(-c4ccc(F)cc4)n2)OC[C@]3(C)C(N)=O)C(F)(F)F)cc2ccc(C(F)(F)F)nc12` [Example 224], for which the EC50 is more than 200 nM.
The figure for `C[C@]1(C(N)=O)COc2c1cc([C@@](O)(CNC(=O)c1cc(OC3CC3)c3nc(C(F)(F)F)ccc3c1)C(F)(F)F)nc2-c1ccc(F)cc1` [Example 225] is more than 200 nM; for `Cc1ccc2cc(C(=O)NC[C@](O)(c3cc4c(c(-c5ccc(F)cc5)n3)OC[C@]4(C)C(N)=O)C(F)(F)F)cc(O)c2n1` [Example 226] it is less than 200 nM; for `C[C@]1(C(N)=O)COc2c1cc([C@@](O)(CNC(=O)c1cc(O)c3nc(C(F)(F)F)ccc3c1)C(F)(F)F)nc2-c1ccc(F)cc1` [Example 227] it is more than 200 nM.
To `C[C@]1(C(N)=O)COc2c1cc([C@@](O)(CNC(=O)c1cc(O)c3ncccc3c1)C(F)(F)F)nc2-c1ccc(F)cc1` [Example 229] belongs more than 200 nM.
With `Cc1nnc2ccc(C(=O)NC[C@](O)(c3cc4c(c(-c5ccc(F)cc5)n3)OC[C@]4(C)C(N)=O)C(F)(F)F)cc2c1C` [Example 231], the EC50 was more than 200 nM.
For `C[C@]1(C(N)=O)COc2c1cc([C@@](O)(CNC(=O)c1ccc3cccnc3c1)C(F)(F)F)nc2-c1ccc(F)cc1` [Example 233], the EC50 is more than 200 nM.
As for `C[C@]1(C(N)=O)COc2c1cc([C@@](O)(CNC(=O)c1ccc3nccnc3c1)C(F)(F)F)nc2-c1ccc(F)cc1` [Example 234], the EC50 was more than 200 nM.
The figure for `C[C@]1(C(N)=O)COc2c1cc([C@@](O)(CNC(=O)c1cc3ccccc3cn1)C(F)(F)F)nc2-c1ccc(F)cc1` [Example 236] is more than 200 nM; for `C[C@]1(C(N)=O)COc2c1cc([C@@](O)(CNC(=O)c1cnc3ccccc3n1)C(F)(F)F)nc2-c1ccc(F)cc1` [Example 237] it is more than 200 nM; for `C[C@]1(C(N)=O)COc2c1cc([C@@](O)(CNC(=O)c1ccc3ncccc3n1)C(F)(F)F)nc2-c1ccc(F)cc1` [Example 238] it is more than 200 nM.
To `C[C@]1(C(N)=O)COc2c1cc([C@@](O)(CNC(=O)c1cnc3ncccc3c1)C(F)(F)F)nc2-c1ccc(F)cc1` [Example 239] belongs less than 200 nM; to `C[C@]1(C(N)=O)COc2c1cc([C@@](O)(CNC(=O)c1ccc3ncccc3c1Cl)C(F)(F)F)nc2-c1ccc(F)cc1` [Example 240], more than 200 nM.
Turning to `C[C@]1(C(N)=O)COc2c1cc([C@@](O)(CNC(=O)c1cc3cccnc3cc1Cl)C(F)(F)F)nc2-c1ccc(F)cc1` [Example 241], the concentration giving a half-maximal response (EC50) was more than 200 nM.
Take `C[C@]1(C(N)=O)COc2c1cc([C@@](O)(CNC(=O)c1cnc3cccnc3c1)C(F)(F)F)nc2-c1ccc(F)cc1` [Example 242]: the EC50 was more than 200 nM.
As for `C[C@]1(C(N)=O)COc2c1cc([C@@](O)(CNC(=O)c1ccc3ccccc3n1)C(F)(F)F)nc2-c1ccc(F)cc1` [Example 243], the EC50 is more than 200 nM.
To `C[C@]1(C(N)=O)COc2c1cc([C@@](O)(CNC(=O)c1cnc3cnccc3c1)C(F)(F)F)nc2-c1ccc(F)cc1` [Example 244] belongs more than 200 nM; to `C[C@]1(C(N)=O)COc2c1cc([C@@](O)(CNC(=O)c1ccc3c(Cl)nccc3c1)C(F)(F)F)nc2-c1ccc(F)cc1` [Example 247], less than 200 nM.
`C[C@]1(C(N)=O)COc2c1cc([C@@](O)(CNC(=O)c1ccc3ncncc3c1)C(F)(F)F)nc2-c1ccc(F)cc1` [Example 248]: the EC50 is less than 200 nM.
To `COc1cc(C(=O)NC[C@](O)(c2cc3c(c(-c4ccc(F)cc4)n2)OC[C@]3(C)C(N)=O)C2CC2)cc2cccnc12` [Example 249] belongs less than 200 nM; to `Cc1ccnc2c(O)cc(C(=O)NC[C@](O)(c3cc4c(c(-c5ccc(F)cc5)n3)OC[C@]4(C)C(N)=O)C(F)(F)F)cc12` [Example 250], more than 200 nM.
`COc1cc(C(=O)NC[C@](O)(c2cc3c(c(-c4ccc(F)cc4)n2)OC[C@]3(C)C(N)=O)C(F)(F)F)cc2c(C)ccnc12` [Example 251]: the EC50 is more than 200 nM.
`Cc1cnc2c(O)cc(C(=O)NC[C@](O)(c3cc4c(c(-c5ccc(F)c(Cl)c5)n3)OC[C@]4(C)C(N)=O)C(F)(F)F)cc2c1` [Example 253]: the EC50 was less than 200 nM.
The figure for `Cc1cnc2c(O)cc(C(=O)NC[C@](O)(c3cc4c(c(-c5ccc(F)cc5)n3)OC[C@]4(C)C(N)=O)C3CC3)cc2c1` [Example 254] is less than 200 nM; for `COc1cc(C(=O)NC[C@](O)(c2cc3c(c(-c4ccc(F)c(Cl)c4)n2)OC[C@]3(C)C(N)=O)C2CC2)cc2cc(C)cnc12` [Example 258] it is less than 200 nM; for `COc1cc(C(=O)NC[C@](O)(c2cc3c(c(-c4ccc(C)cc4)n2)OC[C@]3(C)C(N)=O)C(F)(F)F)cc2cc(C)cnc12` [Example 259] it is less than 200 nM.
For `COc1cc(C(=O)NC[C@](O)(c2cc3c(c(-c4ccc(Cl)c(F)c4)n2)OC[C@]3(C)C(N)=O)C(F)(F)F)cc2cc(C)cnc12` [Example 260], the concentration for a half-maximal effect (EC50) was less than 200 nM.
With `CCc1cnc2c(O)cc(C(=O)NC[C@](O)(c3cc4c(c(-c5ccc(F)cc5)n3)OC[C@]4(C)C(N)=O)C(F)(F)F)cc2c1` [Example 261], the half-maximal effective concentration (EC50) was less than 200 nM.
Regarding `Cc1cnc2c(OC3CC3)cc(C(=O)NC[C@](O)(c3cc4c(c(-c5ccc(F)cc5)n3)OC[C@]4(C)C(N)=O)C(F)(F)F)cc2c1` [Example 263], the EC50 was less than 200 nM.
Take `COc1cc(C(=O)NC[C@](C)(O)c2cc3c(c(-c4ccc(F)cc4)n2)OC[C@]3(C)C(N)=O)ccc1OC[C@@H](C)O` [Example 264]: the half-maximal effective concentration (EC50) is less than 200 nM.
`C[C@@H](O)COc1ccc(C(=O)NC[C@](C)(O)c2cc3c(c(-c4ccc(F)cc4)n2)OC[C@]3(C)C(N)=O)cc1OC1CC1` [Example 267]: the 50% effective concentration (EC50) was less than 200 nM.
`C[C@]1(C(N)=O)COc2c1cc([C@@](O)(CNC(=O)c1ccc3ccncc3c1)C(F)(F)F)nc2-c1ccc(F)cc1` [Example 268]: the half-maximal effective concentration (EC50) is less than 200 nM.
Turning to `CC(C)(O)COc1cc(C(=O)NC[C@](O)(c2cc3c(c(-c4ccc(F)cc4)n2)OC[C@]3(C)C(N)=O)C(F)(F)F)cc2cccnc12` [Example 270], the concentration giving a half-maximal response (EC50) is more than 200 nM.
`CCc1ccc2cc(C(=O)NC[C@](O)(c3cc4c(c(-c5ccc(F)cc5)n3)OC[C@]4(C)C(N)=O)C(F)(F)F)cc(O)c2n1` [Example 272]: the EC50 is more than 200 nM.
To `CCc1ccc2cc(C(=O)NC[C@](O)(c3cc4c(c(-c5ccc(F)cc5)n3)OC[C@]4(C)C(N)=O)C(F)(F)F)cc(OC)c2n1` [Example 273] belongs less than 200 nM.
